Measurements published in patent publication US8829014B2, “Thiazole and thiophene analogues, and their use in treating autoimmune diseases and cancers” (Board of Supervisors of Louisiana State University and …, priority 2006, dated 2014).
Marks after values point to notes of the source that are not given here.

Tests used:
Format in all cases: cell-based
FaDu cells = tested on: FaDu cells
Excerpt: […]. Values greater than 1.0 indicate activation, and values less than 1.0 indicate inhibition.) The compounds that inhibited luciferase translation might, potentially, act by generally inhibiting translation, by reducing cell numbers through inhibition of growth or by cell toxicity, or specifically by inhibiting highly cap-dependent translation. To analyze any general effects on cell viability, fourteen compounds were selected that altered luciferase activity (including a few that increased activity) to test for any effects on cell number. An MTT assay was used to monitor compounds for inhibition of cell growth and cell toxicity. The compounds were tested once in a six-point dose-response assay starting at 10 nM and increasing to 3.3 μM. FaDu cells were plated in a 96-well plate for 24 hr before addition of the compounds. Each compound was added in each of six concentrations (10 nM, 30 nM, 100 nM, 330 nM, 1000 nM, and 3300 nM), and each concentration was tested in triplicate. In addition, DMSO was used as a control. After incubating for 24 hr, the cell number was measured using the MTT assay.

[1] = tested on: Human umbilical vein endothelial cells (HUVEC); assay: LDH release cytotoxicity in HUVEC; conditions: human, 48 h, 10 μM
Experimental: (§1) Additional compounds have also been tested for their ability to inhibit both TNF-α-induced NF-κB—expression and PMA-induced AP-1 expression. In both tests, the compound was added for 1 h, then the appropriate inducer was added, and luciferase activity was monitored 24 h later. Values were then normalized to the vehicle control, DMSO. Following the initial luciferase screens, studies were conducted to assess the cytotoxicity of the compounds in normal cells such as VSMC, HUVEC, or HPT cells. Human umbilical vein endothelial cells (HUVEC) represent the normal endothelium, vascular smooth muscle cells (VSMC) were represented by cells from the adult rat aorta, and human proximal tubule (HPT) cells represent the normal proximal tubule in vivo. These cells were grown to near confluency in multi-well plates, and were then treated for 48 h with either vehicle (0.1% DMSO) or 10 μM of each drug candidate. Following treatment, the media from the VSMC and HUVEC incubations were removed, and the amount of lactate dehydrogenase (LDH) released into the medium was determined with a commercial kit. LDH is normally confined to the cytosol, and its release represents “leakiness” of the plasma membrane. LDH activity was expressed as % increase over vehicle-treated cells. In another assay of viability, the treated VSMC and HUVEC were removed by trypsinization and treated with trypan blue, a dye that is taken up only by dead cells. The number of both live and dead cells was counted using an automated cell viability analyzer. The % decrease in numbers of viable cells was determined. Toxicity in the treated HPT cells was determined by the ethidium homodimer (EthHD) uptake assay. EthHD is a fluorescent dye that is excluded from live cells, but is taken up by cells that have lost permeability barriers. Inside the cell, EthHD produces a strong fluorescent signal, which is proportional to the number of dead cells. Results were expressed as a % increase in cell death over vehicle-treated cells. The lead compounds were also tested in two pairs of cell lines from either the skin or prostate, one tumorigenic and one non-tumorigenic, to test for any differences in toxicity or heightened sensitivity in the tumorigenic lines. The cells were treated for 48 h with vehicle (0.1% DMSO) or 10 μM of each drug candidate. Following treatment, the viability of the cells was determined by the MTT assay. In this assay, the MTT dye is converted only in viable cells by intracellular enzymes to a colorimetric product that is quantitated by a microplate reader.
(§2) For the results in Table 13, cells were grown to near confluency in multi-well plates, then treated for 48 h with either vehicle (0.1% DMSO) or 10 μM of each drug candidate. Following treatment, the media from the VSMC and HUVEC incubations were removed, and the amount of lactate dehydrogenase (LDH) released into the medium was determined with a commercial kit and expressed as a % increase over vehicle-treated cells. HPT toxicity was determined by the ethidium homodimer (EthHD) uptake assay. Inside the cell, EthHD produces a strong fluorescent signal, which is proportional to the amount of cell death, expressed as a % increase in cell death over vehicle-treated cells. The lead compounds were also tested in two pairs of cell lines from the skin or prostate, one tumorigenic and one non-tumorigenic, to test for differing toxicity or heightened sensitivity in the tumorigenic lines. The cells were treated for 48 h with vehicle (0.1% DMSO) or 10 μM of each drug candidate, and the viability of the cells was determined by the MTT assay, expressed as a % decrease in viability compared to vehicle-treated cells. The in vivo inflammation model measured the % inhibition of rat paw edema induced by carageenan injection.

[2] = tested on: vascular smooth muscle cells (VSMC); assay: LDH release cytotoxicity in VSMC; conditions: rat, 48 h, 10 μM
Experimental: as §1, §2

[3] = MTT viability in skin cell line pair, tumorigenic and non-tumorigenic; conditions: human
Experimental: as §1, §2

[4] = tested on: human proximal tubule (HPT) cells; assay: Ethidium homodimer (EthHD) uptake toxicity assay in HPT cells; conditions: 10 μM, 48 h, relative to vehicle
Experimental: as §1, §2

[5] = tested on: vascular smooth muscle cells (VSMC); assay: Trypan blue viability count in VSMC; conditions: rat, 48 h, 10 μM
Experimental: as §1

Molecule	inhibition of cell viability (FaDu cells) [%]	LDH release % Increase HUVEC [1]	LDH release % Increase VSMC [2]	cytotoxicity at 48 h, 10 μM ([3]; Viability (MTT) % Decrease HaCaT) [%]	cytotoxicity at 48 h, 10 μM ([3]; Viability (MTT) % Decrease SRB12-p9) [%]	Cell Death (EthHD) % Increase HPT [4]	Viable Cells % Decrease VSMC [5]
Bis-[2-(4-Chloro-phenylamino)-4-benzayl-thiazole-5-yl]-methanone [Example 134]	~20						
CNc1nc(C)c(-c2nc3ccccc3c(=O)n2-c2ccc(Cl)cc2)s1 [Example 244, 2-(4-Methyl-2-methylamino-thiazol-5-yl)-3-(4-chloro-phenyl)-3H-quinazolin-4-one]		124# %	68# %	25	28	180# %	70# %
